Some results are limits rather than exact numbers.

For the first experiment, the system named is M1 -site muscarinic receptors.
Test: not given
As to conditions: M1 -site versus M2 -sites; cited from earlier work.
For `CN1CCN(CC(=O)N2c3ccccc3C(=O)Nc3cccnc32)CC1` [Pirenzepine, pirenzepine, [N-methyl-^3 H]], the “selectivity of pirenzepine binding for muscarinic receptor subtype” value is recorded as “selective for M1 -sites”.

The next experiment addresses muscarinic receptor.
Test: not given
As to conditions: high affinity site; muscarinic receptor in the CNS; read-out: affinity of 3H-Oxo, first of three labeled sites; cited from earlier work.
`C[N+](C)(C)CC#CCN1CCCC1=O` [3 H-Oxo]: the Kd was 1.8 nM.

The experiment is the same for the next values; noted with them: medium affinity site; muscarinic receptor in the CNS; read-out: affinity of 3H-Oxo, second of three labeled sites; cited from earlier work.
On to `C[N+](C)(C)CC#CCN1CCCC1=O` [3 H-Oxo], for which the Kd was 20 nM.

The same experiment, now with this note: third site, not determined under the present conditions; muscarinic receptor in the CNS; read-out: affinity of 3H-Oxo, third of three labeled sites; cited from earlier work.
For `C[N+](C)(C)CC#CCN1CCCC1=O` [3 H-Oxo], the Kd is 3000 nM.

A further experiment deals with T1, human m4 receptors (Homo sapiens, UniProt P08173).
T1 construct: expressed in transfected cells; host or cells: CHO K1
T1 sequence (P08173 whole entry): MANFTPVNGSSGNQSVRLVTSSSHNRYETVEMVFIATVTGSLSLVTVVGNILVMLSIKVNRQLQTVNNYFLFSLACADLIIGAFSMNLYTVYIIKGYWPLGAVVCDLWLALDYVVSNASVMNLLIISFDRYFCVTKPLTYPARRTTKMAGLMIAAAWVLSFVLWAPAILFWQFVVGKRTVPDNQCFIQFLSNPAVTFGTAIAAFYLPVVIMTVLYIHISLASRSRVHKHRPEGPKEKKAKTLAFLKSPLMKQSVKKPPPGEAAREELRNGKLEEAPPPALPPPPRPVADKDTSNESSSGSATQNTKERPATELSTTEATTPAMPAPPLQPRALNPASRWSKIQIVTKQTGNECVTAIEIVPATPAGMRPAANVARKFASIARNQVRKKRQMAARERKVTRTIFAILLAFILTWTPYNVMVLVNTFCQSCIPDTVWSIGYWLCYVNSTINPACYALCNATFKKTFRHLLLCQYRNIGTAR
The experiment can be described thus: M4 assay: cyclic AMP accumulation/production in pertussis toxin-treated CHO m4 cells (% maximum stimulation compared to oxotremorine-M). In kind it is cell-based. To be noted: read-out: % Maximum Stimulation Compared to Oxotremorine-M. The protocol:
II. M4 muscarinic receptor […] assay:
Cyclic AMP Accumulation in Pertussis Toxin-Treated CHO m4 Cells.
CHO K1 cells transfected with human m4 receptors were grown to near confluency in T-150 flasks using Dulbecco's Modified Eagle Medium (DMEM) containing 10% fetal bovine serum. Cells were detached with 0.05% trypsin, 0.53 mM EDTA, and were suspended in medium containing 100 ng/ml pertussis toxin. Cells were plated at 30,000 cells per well into 96 well plates. Eighteen to twenty hours later the medium was removed and the cells were washed with serum-free medium. Attached cells were incubated at 37_C for one hour after addition of […] of serum free DMEM containing 1 mM 3-isobutyl-1-methylxanthine and 1 mM forskolin plus or minus drugs being tested. Incubations were terminated with […] per well of serum free DMEM containing 0.3%, triton-X-100. After stopping incubations the plates were allowed to sit for 20 minutes to extract cAMP and samples were then diluted 2.5-fold and were assayed using the scintillation proximity assay of Amersham (Arlington Heights, Ill.).
Representative results from the M4 assay are as follows:
Stimulation of cyclic AMP Production in CHO-m4 cells.
Regarding `O=C(N[C@@H]1c2cc(N=CN3CCCCC3)ccc2C[C@H]1O)c1cccc(Cl)c1Cl` (relative stereo) [Compound 88], the Emax was 52%. On the same count and under the same terms, the figure for `N#Cc1ccc(C(=O)N[C@H]2c3cc(N=CN4CCCC4)ccc3C[C@@H]2O)cc1` (relative stereo) [Compound 13] is less than 20%; for `O=C(N[C@H]1c2cc(N=CN3CCCC3)ccc2C[C@@H]1O)c1c(F)ccc(F)c1F` (relative stereo) [Compound 29] it is less than 20%.

For `O=C(N[C@@H]1c2cc(N=CN3CCCCC3)ccc2C[C@H]1O)c1cc(F)cc(F)c1` (relative stereo) [Compound 98], the Emax was 73%. In the case of `O=C(N[C@H]1c2cc(N=CN3CCCC3)ccc2C[C@@H]1O)c1cccnc1Cl` (relative stereo) [Compound 12], the Emax turned out to be 26%. For `O=C(N[C@H]1c2cc(N=CN3CCCC3)ccc2C[C@@H]1O)c1cccc2ccccc12` (relative stereo) [Compound 15], the Emax amounted to 76%. With `O=C(N[C@H]1c2cc(N=CN3CCCC3)ccc2C[C@@H]1O)c1cc(Cl)cc(Cl)c1` (relative stereo) [Compound 14], the Emax was found to be 100%. On to `O=C(N[C@H]1c2cc(N=CN3CCCC3)ccc2C[C@@H]1O)c1ccc(F)c(F)c1F` (relative stereo) [Compound 33], for which the Emax came to 45%. On the same count and under the same terms, the result for `O=C(N[C@H]1c2cc(N=CN3CCCC3)ccc2C[C@@H]1O)c1cccc(F)c1` (relative stereo) [Compound 30] reads less than 20%; that for `CN(C)C=Nc1ccc2c(c1)[C@@H](NC(=O)c1cc3ccccc3s1)[C@H](O)C2` (relative stereo) [Compound 69], 14%; that for `CN(C)C=Nc1ccc2c(c1)[C@@H](NC(=O)c1ccc3ccccc3c1)[C@H](O)C2` (relative stereo) [Compound 63], 13%.

With `CN(C)C=Nc1ccc2c(c1)[C@@H](NC(=O)c1cc(F)c(F)c(F)c1)[C@H](O)C2` (relative stereo) [Compound 65], the Emax was 30%.

In the case of `O=C(N[C@@H]1c2cc(N=CN3CCCC3)ccc2C[C@H]1O)c1ccccc1Cl` (relative stereo) [Compound 44], the Emax was determined as 41%. Same read-out and setting: the figure for `CN(C)C=Nc1ccc2c(c1)[C@@H](NC(=O)c1ccc(Cl)nc1)[C@H](O)C2` (relative stereo) [Compound 74] is 8%; for `Cc1cc(C)c(C(=O)N[C@H]2c3cc(N=CN4CCCC4)ccc3C[C@@H]2O)c(C)c1` (relative stereo) [Compound 27] it is less than 20%; for `O=C(N[C@@H]1c2cc(N=CN3CCCCC3)ccc2C[C@H]1O)c1cc(Cl)cc(Cl)c1` (relative stereo) [Compound 97] it is 36%. The same measure, in the same setting: the result for `CCCCc1ccc(C(=O)N[C@@H]2c3cc(N=CN(C)C)ccc3C[C@H]2O)cc1` (relative stereo) [Compound 70] reads 18%; that for `CN(C)C=Nc1ccc2c(c1)[C@@H](NC(=O)c1sccc1Cl)[C@H](O)C2` (relative stereo) [Compound 68], 0%; that for `CN(C)C=Nc1ccc2c(c1)[C@@H](NC(=O)c1cc(F)cc(C(F)(F)F)c1)[C@H](O)C2` (relative stereo) [Compound 64], 52%. On to `CCCCc1ccc(C(=O)N[C@@H]2c3cc(N=CN4CCCC4)ccc3C[C@H]2O)cc1` (relative stereo) [Compound 45], for which the Emax was less than 20%.

As for `CN(C)C=Nc1ccc2c(c1)[C@@H](NC(=O)C1CCCC1)[C@H](O)C2` (relative stereo) [Compound 62], the Emax worked out at 27%. Still for that read-out and setting: the figure for `CCCc1ccc(C(=O)N[C@H]2c3cc(N=CN4CCCC4)ccc3C[C@@H]2O)cc1` (relative stereo) [Compound 26] is less than 20%; for `O=C(N[C@H]1c2cc(N=CN3CCCC3)ccc2C[C@@H]1O)c1ccc([N+](=O)[O-])cc1Cl` (relative stereo) [Compound 20] it is 69%; for `Cc1cccc(C(=O)N[C@H]2c3cc(N=CN4CCCC4)ccc3C[C@@H]2O)c1` (relative stereo) [Compound 37] it is 76%.

As to `CN(C)C=Nc1ccc2c(c1)[C@@H](NC(=O)c1cccc(C#N)c1)[C@H](O)C2` (relative stereo) [Compound 61], the Emax turned out to be 39%.

For the molecule `COc1cc(OC)cc(C(=O)N[C@H]2c3cc(N=CN4CCCC4)ccc3C[C@@H]2O)c1` (relative stereo) [Compound 36], the Emax was less than 20%.

For `O=C(N[C@H]1c2cc(N=CN3CCCC3)ccc2C[C@@H]1O)c1ccccc1C(F)(F)F` (relative stereo) [Compound 35], the Emax was determined as 65%. The same measure, in the same setting: the result for `CCCCOc1ccc(C(=O)N[C@@H]2c3cc(N=CN(C)C)ccc3C[C@H]2O)cc1` (relative stereo) [Compound 59] reads 22%; that for `CN(C)C=Nc1ccc2c(c1)[C@@H](NC(=O)C(F)(F)F)[C@H](O)C2` (relative stereo) [Compound 66], 0%.

Take `CN(C)C=Nc1ccc2c(c1)[C@@H](NC(=O)c1cc(Cl)cc(Cl)c1)[C@H](O)C2` (relative stereo) [Compound 58]: the Emax worked out at 74%. The same measure, in the same setting: the result for `O=C(N[C@H]1c2cc(N=CN3CCCC3)ccc2C[C@@H]1O)C(F)(F)F` (relative stereo) [Compound 19] reads less than 20%; that for `CN(C)C=Nc1ccc2c(c1)[C@@H](NC(=O)c1cccc3ccccc13)[C@H](O)C2` (relative stereo) [Compound 71], 95%.

(Values after patent US6211364A, “Process for preparing indane-like compounds” (Eli Lilly and Company, priority 1999, dated 2001).)
